# Legend:
# A-431 = assay: Inhibitory activity against proliferation of human epidermoid carcinoma (A431) cells; format: functional, cell-based
# Gallus gallus = species: Gallus gallus; assay: Anti-angiogenic activity was assessed by inhibition of the vascular growth in the chick embryo chorioallantoic membrane (CAM assay) at 125 nM; format: functional, tissue-based
# L1210 = assay: Inhibitory activity against proliferation of murine leukemia (L1210) cells; format: functional, cell-based; conditions: Mus musculus
SMILES,IC50 (A-431) [µM],inhibition (Gallus gallus) [%],IC50 (L1210) [µM]
CCCCCCC[C@H]1O[C@@H]2OC(=O)N(C(=O)CCl)[C@@H]2CC1=O,79,87,96
CCCCCC1OC1[C@@]1(C)O[C@@H]2OC(=O)N(C(=O)CCl)[C@@H]2CC1=O (stereo partly drawn),116,58,193
C[C@]1(C#CCCCCc2ccccc2)O[C@@H]2OC(=O)N(C(=O)CCl)[C@@H]2CC1=O,56,60,27
CCCCCC#C[C@@]1(C)O[C@@H]2OC(=O)N(C(=O)CCl)[C@@H]2C[C@H]1O,75,25,> 100
CCCCCC#C[C@]1(C)O[C@@H]2OC(=O)N(C(=O)CCl)[C@@H]2CC1=O,5,50,32
CCCCCC#C[C@@]1(C)O[C@@H]2OC(=O)N(C(=O)CCl)[C@@H]2CC1=O,47,70,31
CCCCCC1OC1[C@@]1(C)O[C@@H]2OC(=O)N(C(=O)CCl)[C@@H]2C[C@@]12CO2 (stereo partly drawn),93,,89
CCCCC/C=C/[C@@]1(C)O[C@@H]2OC(=O)N(C(=O)CCl)[C@@H]2CC1=O,81,50,81
CCCCCCC[C@@]1(C)O[C@@H]2OC(=O)N(C(=O)CCl)[C@@H]2CC1=O,78,60,28
CO[C@@H]1[C@H](OC(=O)/C=C/C=C/C=C/C=C/C(=O)O)CC[C@]2(CO2)[C@H]1[C@@]1(C)O[C@@H]1CC=C(C)C [FUMAGILLIN],5,85,8
CCCCCC#C[C@@]1(C)O[C@@H]2OC(=O)N(C(=O)CCl)[C@@H]2C[C@@H]1O,52,40,> 100
COC#C[C@@]1(C)O[C@@H]2OC(=O)N(C(=O)CCl)[C@@H]2CC1=O,64,60,74
CCCCCC1OC1[C@@]1(C)O[C@@H]2OC(=O)N(C(=O)CCl)[C@@H]2C[C@]12CO2 (stereo partly drawn),33,19,22

# Reference: ChEMBL document CHEMBL1135124, “Novel bicyclic oxazolone derivatives as anti-angiogenic agents” (Bioorg Med Chem Lett, 2002)
